# Results published in US20180071284A1, “PREVENTING OR TREATING VIRAL INFECTION BY INHIBITION OF THE HISTONE METHYLTRANSFERASE EZH1 OR EZH2” (The United States of America, as represented by the …, priority 2015, published 2018).
# Legend:
# HSV-1 [1] = test: Mouse trigeminal ganglia explant reactivation model, viral yield titrated on Vero cells; type: cell-based, herpes simplex virus 1 (HSV-1); conditions: explant 48-hrs; compound 1 35 μM, compound 3 30 μM, compound 4 30 μM
# Description: Trigeminal ganglia from HSV-1 latently infected mice were bisected. Half were explanted in media with control DMSO (vehicle), and the other half were explanted in media with ACV (100 μM), ML324 (50 μM), compound 1 (35 μM), compound 3 (30 μM), or compound 4 (30 μM) for 48-hrs to induce viral reactivation. Viral yields were determined by titrating on Vero cells. Each point represents the titer of one explanted trigeminal ganglia.
# [2] = test system: cytokines, chemokines, and adhesion proteins involved in innate signaling; test: RNA-seq analysis of explanted trigeminal ganglia from HSV-1 latently infected mice; type: cell-based; conditions: 30 μM, 12 hrs
# Description: Trigeminal ganglia from HSV-1 latently infected mice were explanted in media with control DMSO (vehicle) or in media with compound 4 (30 μM) for 12 hrs. Total cellular RNA was isolated and RNA-seq analysis identified the induction of cytokines, chemokines, and adhesion proteins involved in innate signaling and recruitment of immune effector cells. The results are in Table 1 below, where changes in gene expression are expressed as ratios of compound 4 relative to vehicle.
# IFN-α, TNF-α, IL-8 mRNAs = test: Cellular innate interferon signaling mRNAs in mock or HSV-1 infected HFF cells; type: cell-based, human; conditions: 30 μM, 5-hrs
# Description: HFF cells were treated with EZH1/2 catalytic inhibitor compound 4 (30 μM) or DMSO for 5-hrs. HFF cells were then mock or infected with HSV-1 (2.0 PFU per cell) for 1.5-hrs in the presence of inhibitor or DMSO. The levels of HSV viral IE (ICP4 and ICP27), control (SP1), and cellular innate interferon signaling (IFN-α, TNF-α, IL-8) mRNAs are expressed as absolute levels (absolute copies).
# HFF cells = test: Microarray analysis of HFF cells; type: cell-based, human; conditions: 30 μM, 4-hrs
# Description: -[…] (2013), incorporated herein by reference). In normal fibroblast cells (as opposed to established cell lines or transformed cells lines), 41 genes are co-regulated by IFN (16%) and compound 4 treatment alone.
# HSV-1 [3] = test: UL29+ single neurons and neuron clusters in explanted trigeminal ganglia; type: cell-based, herpes simplex virus 1 (HSV-1); conditions: explant 48-hrs; compound 1 35 μM, compound 4 30 μM, ACV 100 μM, ML324 50 μM
# Description: (§1) Trigeminal ganglia were fixed in paraformaldehyde and tissue sections were contained with anti-UL29 and DAPI. The HSV E gene UL29 (DNA single strand binding replication protein) was used a marker for viral reactivation. Tissue sections were scored for UL29+ cell clusters (clusters indicate viral spread from the primary neuron to surrounding cells) and for individual neurons representing the primary reactivation event (single) (FIGS. 18 and 19).
# as §1, with “costained” for “contained”, “(FIG. 25).” for “(FIGS. 18 and 19).”
# Zika virus (ZIKV) = test: Zika virus infection of HFF cells (focus forming units, percent infected cells); type: cell-based
# Description: FIG. 32 presents line graphs that show the number and size of Focus Forming Units (FFU) after HFF cells were treated with the indicated concentrations of compound 4 for 5 h and infected with ZIKV for 40 h, in accordance with embodiments of the invention.
# HFF cells were treated with compound 4 and infected with Zika virus (ZIKV), a member of the flavivirus family.
# To determine if pretreatment was required to suppress ZIKV infection, cells were pretreated with compound 4 or were treated 3 h post ZIKV adsorption. While pretreatment was modestly more efficient at suppression of infection at lower compound 4 concentrations, it was not essential to effect significant suppression (FIG. 34).
# HSV-1 [4] = test: HSV-1 cellular and nuclear entry (viral DNA in total and nuclear fractions of HFF cells); type: cell-based, herpes simplex virus 1 (HSV-1); conditions: compound 1 35 μM, compound 4 30 μM, 5-hrs pretreatment, HSV-1 2.0 PFU per cell 1.5-hrs
# Description: HFF cells were treated with the EZH1/2 catalytic inhibitor compound 1 (35 μM), compound 4 (30 μM), or DMSO (vehicle) for 5-hrs. The HFF cells were then infected with HSV-1 (2.0 PFU per cell) for 1.5-hrs in the presence of the inhibitors or DMSO (vehicle). The levels of HSV viral DNA isolated from total and nuclear cellular fractions are expressed as ratios relative to DMSO (vehicle).
# [5] = normal fibroblast cells data set
# [6] = HFF cells treated 5 h, infected with ZIKV for 40 h, dose-dependent
structure (smiles),measurement,setting,value
"CC[C@H](C)n1cc(C)c2c(C(=O)NCc3c(C)cc(C)[nH]c3=O)cc(-c3ccc(N4CCNCC4)nc3)cc21 [compound 4, GSK126]",HSV reactivation from latency (viral yield per explanted trigeminal ganglia),HSV-1 [1],block HSV reactivation from latency
same,"genes induced >2 fold that are co-regulated by IFN (Interferome), ganglia explants",[2],33 genes
same,"share of genes induced >2 fold that are co-regulated by IFN (Interferome), ganglia explants",[2],69%
same,Fold Change (Cmpd. 4 relative to vehicle),[2]; Gene CCL2 (Chemokines),2.23
same,Fold Change (Cmpd. 4 relative to vehicle),[2]; Gene CXCL1 (Chemokines),6.30
same,Fold Change (Cmpd. 4 relative to vehicle),[2]; Gene CXCL2 (Chemokines),5.11
same,Fold Change (Cmpd. 4 relative to vehicle),[2]; Gene CXCL3 (Chemokines),2.68
same,Fold Change (Cmpd. 4 relative to vehicle),[2]; Gene CXCL5 (Chemokines),3.78
same,Fold Change (Cmpd. 4 relative to vehicle),[2]; Gene G-CSF (Cytokines),6.16
same,Fold Change (Cmpd. 4 relative to vehicle),[2]; Gene GM-CSF (Cytokines),5.51
same,Fold Change (Cmpd. 4 relative to vehicle),[2]; Gene ICAM1 (Adhesion),2.51
same,Fold Change (Cmpd. 4 relative to vehicle),[2]; Gene IL6 (Cytokines),3.61
same,Fold Change (Cmpd. 4 relative to vehicle),[2]; Gene IL11 (Cytokines),2.16
same,Fold Change (Cmpd. 4 relative to vehicle),[2]; Gene LIF (Cytokines),2.66
same,Fold Change (Cmpd. 4 relative to vehicle),[2]; Gene SELE (Adhesion),3.86
same,Fold Change (Cmpd. 4 relative to vehicle),[2]; Gene SELP (Adhesion),3.16
same,Fold Change (Cmpd. 4 relative to vehicle),[2]; Gene VEGF-c (Cytokines),2.10
same,"expression of innate antiviral signaling molecules IFN-α, TNF-α, and IL-8","IFN-α, TNF-α, IL-8 mRNAs",induces the expression
same,genes induced >2 fold that are co-regulated by IFN (Interferome),HFF cells,212 genes
same,genes induced greater than 2 fold relative to vehicle (microarray),HFF cells,252 genes
same,pro-inflammatory pathways induced (Ingenuity Pathway Analysis),HFF cells,"IL6, IL17, TLR, HMGB1, and JAK/STAT signaling pathways"
same,share of genes induced >2 fold that are co-regulated by IFN (Interferome),HFF cells,84%
same,genes co-regulated by IFN in normal fibroblast cells,HFF cells; [5],41 genes
same,share of genes co-regulated by IFN in normal fibroblast cells,HFF cells; [5],16%
same,primary reactivation (UL29+ single neurons),HSV-1 [3],reduced
same,secondary spread of HSV (UL29+ neuron clusters),HSV-1 [3],reduced
same,number of ZIKV infected cells (intracellular staining for ZIKV antigens),Zika virus (ZIKV); 1 and 2 dpi,reduction
same,number of ZIKV focus forming units (plaques),Zika virus (ZIKV); [6],significantly reduced
same,size of ZIKV focus forming units (plaques),Zika virus (ZIKV); [6],significantly reduced
same,requirement of pretreatment for suppression of ZIKV infection,Zika virus (ZIKV); pretreated vs treated 3 h post ZIKV adsorption,not essential
same,HSV-1 viral entry (total and nuclear),HSV-1 [4],no impact
